Where two headings read alike, the source gives them in different places. Where a SMILES comes first, the peptide text is derived from it. Bridges are numbered along the chain shown (N, C = ends). [ ]: non-standard residue; d: D form. The star is where a group is joined. hPhe(3,5-F2-4-CF3) = N[C@@H](CCc1cc(F)c(C(F)(F)F)c(F)c1)C(=O)O; hPhe(3-Cl-4-CF3) = N[C@@H](CCc1ccc(C(F)(F)F)c(Cl)c1)C(=O)O; NPrPhe(4-CF3) = CCCN[C@@H](Cc1ccc(C(F)(F)F)cc1)C(=O)O; NEtPhe(4-Me) = CCN[C@@H](Cc1ccc(C)cc1)C(=O)O; NMeGly(cPent) = CN[C@H](C(=O)O)C1CCCC1; Pro(4,4-F2) = O=C(O)[C@@H]1CC(F)(F)CN1; NMeGly(cBu) = CN[C@H](C(=O)O)C1CCC1; αMeI = CC[C@H](C)[C@](C)(N)C(=O)O; NMeD = CN[C@@H](CC(=O)O)C(=O)O; NMeL = CN[C@@H](CC(C)C)C(=O)O; NMeV = CN[C@H](C(=O)O)C(C)C; Morpholide = C1CN(*)CCO1; NAllylGly = C=CCNCC(=O)O; NMeA = CN[C@@H](C)C(=O)O; Ac5c = NC1(C(=O)O)CCCC1; Aze = O=C(O)[C@@H]1CCN1; Sar = CNCC(=O)O
Assays:
[1] = target: GDP-bound NRAS wild-type protein (Homo sapiens, UniProt P01111); experiment: Binding to NRAS by surface plasmon resonance (SPR), Single Cycle Kinetics; details: for NRAS/KRAS (ratio of KD value for NRAS to KD value for KRAS) / NRAS/KRAS (ratio of KD value with respect to NRAS to KD value with respect to KRAS): SPR, GDP-bound NRAS wild-type protein vs GDP-bound KRAS wild-type protein
[2] = target: GDP-bound KRAS wild-type protein (Homo sapiens, UniProt P01116); experiment: Binding to KRAS by surface plasmon resonance (SPR), Single Cycle Kinetics; details: GDP-bound KRAS wild-type protein, read-out: KRAS KD
[3] = target: GDP-bound HRAS wild-type protein (Homo sapiens, UniProt P01112); experiment: Binding to HRAS by surface plasmon resonance (SPR), Single Cycle Kinetics; details: for HRAS/KRAS (ratio of KD value for HRAS to KD value for KRAS) / HRAS/KRAS (ratio of KD value with respect to HRAS to KD value with respect to KRAS): SPR, GDP-bound HRAS wild-type protein vs GDP-bound KRAS wild-type protein
[4] = SPR Single Cycle Kinetics, 1:1 binding model

Sequence of GDP-bound NRAS wild-type protein (P01111 whole entry): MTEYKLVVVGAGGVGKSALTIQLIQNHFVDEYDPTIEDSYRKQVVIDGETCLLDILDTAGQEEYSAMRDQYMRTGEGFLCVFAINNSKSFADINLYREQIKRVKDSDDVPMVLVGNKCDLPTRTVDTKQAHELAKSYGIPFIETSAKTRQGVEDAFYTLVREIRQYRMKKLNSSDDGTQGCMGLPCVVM
Sequence of GDP-bound KRAS wild-type protein (P01116 whole entry): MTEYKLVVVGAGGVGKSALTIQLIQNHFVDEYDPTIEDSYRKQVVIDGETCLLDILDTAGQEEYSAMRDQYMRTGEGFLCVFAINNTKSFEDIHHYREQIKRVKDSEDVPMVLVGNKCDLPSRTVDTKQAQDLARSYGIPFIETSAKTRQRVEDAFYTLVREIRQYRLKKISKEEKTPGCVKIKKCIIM
Sequence of GDP-bound HRAS wild-type protein (P01112 whole entry): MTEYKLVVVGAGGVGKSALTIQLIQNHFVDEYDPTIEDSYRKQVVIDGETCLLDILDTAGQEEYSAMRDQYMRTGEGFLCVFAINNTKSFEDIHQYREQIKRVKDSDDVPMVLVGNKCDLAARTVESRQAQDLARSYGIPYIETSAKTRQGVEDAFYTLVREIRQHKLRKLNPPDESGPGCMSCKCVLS

| Compound | NRAS/KRAS (ratio of KD value for NRAS to KD value for KRAS) [1] | Kd ([2]; SPR, Single Cycle Kinetics) | HRAS/KRAS (ratio of KD value for HRAS to KD value for KRAS) [3] | NRAS/KRAS (ratio of KD value with respect to GDP-bound NRAS wild-type protein to KD value with respect to KRAS) ([1]; SPR KD ratio NRAS/KRAS, class symbols) | Kd [2, 4] | HRAS/KRAS (ratio of KD value with respect to GDP-bound HRAS wild-type protein to KD value with respect to KRAS) ([3]; SPR KD ratio HRAS/KRAS, class symbols) | NRAS/KRAS (ratio of KD value with respect to NRAS to KD value with respect to KRAS) [1] | HRAS/KRAS (ratio of KD value with respect to HRAS to KD value with respect to KRAS) [3] |
| --- | --- | --- | --- | --- | --- | --- | --- | --- |
| CCO[C@@H]1C[C@H]2C(=O)NC3(CCC3)C(=O)N(C)[C@@H]([C@@H](C)CC)C(=O)N(C)[C@H](C(=O)N(C)C)CC(=O)N(C)[C@@H](CC)C(=O)N[C@@H]([C@@H](C)CC)C(=O)N(C)CC(=O)N(C)[C@H]3C/C=C\CCN(C3=O)[C@@H](Cc3ccc(C(F)(F)F)cc3)C(=O)N(C)CC(=O)N[C@@H](CCc3cc(F)c(C(F)(F)F)c(F)c3)C(=O)N2C1 [PP1087, (2S,8S,12R,14S,20S,23S,27S,30S,36S,38Z)-8-[2-[3,5-difluoro-4-(trifluoromethyl)phenyl]ethyl]-12-ethoxy-27-ethyl-N,N,4,19,22,26,32,35-octamethyl-20,30-bis[(1S)-1-methylpropyl]-3,6,9,15,18,21,25,28,31,34,42-undecaoxo-2-[[4-(trifluoromethyl)phenyl]methyl]spiro[1,4,7,10,16,19,22,26,29,32,35-undecazatricyclo[34.5.1.0^10,14]dotetracont-38-ene-17,1′-cyclobutane]-23-carboxamide] | A (a compound having 10 or more and less than 20 is denoted as A) | 0.095 nM | A (a compound having 10 or more and less than 20 is denoted as A) | – | – | – | – | – |
| CCO[C@@H]1C[C@H]2C(=O)NC3(CCC3)C(=O)N(C)[C@@H](C3CCCC3)C(=O)N(C)[C@H](C(=O)N(C)C)CC(=O)N(C)[C@@H](CC3CCCC3)C(=O)N[C@@H]([C@@H](C)CC)C(=O)N(C)CC(=O)N(C)[C@H]3C/C=C\CCN(C3=O)[C@@H](Cc3ccc(C)cc3)C(=O)N(C)CC(=O)N[C@@H](CCc3cc(C)c(C(F)F)c(Cl)c3)C(=O)N2C1 [PP2677] | – | – | – | A (a compound having 10 or more and less than 20 is denoted as A) | 1.3 nM | A (a compound having 10 or more and less than 20 is denoted as A) | – | – |
| CCCN1C(=O)[C@@H]2CCN2C(=O)[C@H](C)N(C)C(=O)[C@H]([C@@H](C)CC)NC(=O)[C@H](C2CCC2)N(C)C(=O)C[C@@H](C(=O)N2CCOCC2)N(C)C(=O)[C@H](C2CCCC2)N(C)C(=O)C2(CCCC2)NC(=O)[C@@H]2CC(F)(F)CN2C(=O)[C@H](CCc2ccc(C(F)(F)F)c(Cl)c2)NC(=O)CN(C)C(=O)[C@@H]1Cc1ccc(C(F)(F)F)cc1 [PP0204] ([NMeGly(cBu)]I[NMeA][Aze][NPrPhe(4-CF3)][Sar][hPhe(3-Cl-4-CF3)][Pro(4,4-F2)][Ac5c][NMeGly(cPent)][NMeD]-Morpholide; lactam N-11) | C (A compound having a KD ratio of 0.1 or more and less than 3 is denoted as C) | – | C (A compound having a KD ratio of 0.1 or more and less than 3 is denoted as C) | – | 0.21 nM | – | – | – |
| CCO[C@@H]1C[C@H]2C(=O)NC3(CCC(F)(F)CC3)C(=O)N(C)[C@@H](C3CCCC3)C(=O)N(C)[C@H](C(=O)N(C)C)CC(=O)N(C)[C@@H](C)C(=O)N[C@@H]([C@@H](C)CC)C(=O)N(C)CC(=O)N(C)[C@H]3CCCCCN(C3=O)[C@@H](Cc3ccc(C(F)(F)F)cc3)C(=O)N(C)CC(=O)N[C@@H](CCc3cc(F)c(C(F)(F)F)c(F)c3)C(=O)N2C1 [PP0725] | – | – | – | – | 5 nM | – | B (a compound having 3 or more and less than 10 is denoted as B) | B (a compound having 3 or more and less than 10 is denoted as B) |
| CCO[C@@H]1C[C@H]2C(=O)NC3(CCC3)C(=O)N(C)[C@@H](C3CCCC3)C(=O)N(C)[C@H](C(=O)N3CCOCC3)CC(=O)N(C)[C@@H](Cc3ccccc3Cl)C(=O)N[C@@H]([C@@H](C)CC)C(=O)N(C)CC(=O)N(C)[C@H]3CCCCCN(C3=O)[C@@H](Cc3ccc(C(F)(F)F)cc3)C(=O)N(C)CC(=O)N[C@@H](CCc3cc(F)c(C(F)(F)F)c(F)c3)C(=O)N2C1 [PP0929] | A (a compound having 10 or more and less than 20 is denoted as A) | 2.7 nM | B (a compound having 3 or more and less than 10 is denoted as B) | – | – | – | – | – |
| C=CCN1CC(=O)N(C)CC(=O)N(CCC)[C@@H](Cc2ccc(C(F)(F)F)cc2)C(=O)N(C)CC(=O)N[C@@H](CCc2ccc(C(F)(F)F)c(Cl)c2)C(=O)N2CCC[C@H]2C(=O)NC2(CCCC2)C(=O)N(C)[C@@H](C2CCCC2)C(=O)N(C)[C@H](C(=O)N2CCOCC2)CC(=O)N(C)[C@@H](CC(C)C)C(=O)N[C@@H]([C@@H](C)CC)C1=O [PP0749] ([NMeL]I[NAllylGly][Sar][NPrPhe(4-CF3)][Sar][hPhe(3-Cl-4-CF3)]P[Ac5c][NMeGly(cPent)][NMeD]-Morpholide; lactam N-11) | – | – | – | – | 0.59 nM | – | B (a compound having 3 or more and less than 10 is denoted as B) | C (A compound having a KD ratio of 0.1 or more and less than 3 is denoted as C) |
| CC[C@H](C)[C@@H]1NC(=O)[C@H](CC(C)C)N(C)C(=O)C[C@@H](C(=O)N2CCOCC2)N(C)C(=O)[C@H](C2CCCC2)N(C)C(=O)C2(CCCC2)NC(=O)[C@@H]2CCCN2C(=O)[C@H](CCc2cc(F)c(C(F)(F)F)c(F)c2)NC(=O)CN(C)C(=O)[C@H](Cc2ccc(C(F)(F)F)cc2)N2CCCC[C@@H](C2=O)N(C)C(=O)CN(C)C1=O [PP0552] | – | – | – | – | 0.052 nM | – | B (a compound having 3 or more and less than 10 is denoted as B) | B (a compound having 3 or more and less than 10 is denoted as B) |
| CC[C@H](C)[C@@H]1NC(=O)[C@H](CC(C)C)N(C)C(=O)C[C@@H](C(=O)N2CCOCC2)N(C)C(=O)[C@H](C(C)C)N(C)C(=O)C2(CCCC2)NC(=O)[C@@H]2CCCN2C(=O)[C@H](CCc2ccc(C(F)(F)F)c(Cl)c2)NC(=O)CN(C)C(=O)[C@H](Cc2ccc(C)cc2)N(CC)C(=O)[C@@H]2CCN2C(=O)[C@H](C)N(C)C1=O [PP0015] ([NMeL]I[NMeA][Aze][NEtPhe(4-Me)][Sar][hPhe(3-Cl-4-CF3)]P[Ac5c][NMeV][NMeD]-Morpholide; lactam N-11) | C (A compound having a KD ratio of 0.1 or more and less than 3 is denoted as C) | – | C (A compound having a KD ratio of 0.1 or more and less than 3 is denoted as C) | – | 2.7 nM | – | – | – |
| CCCN1C(=O)CN(C)C(=O)[C@@H]2CCN2C(=O)[C@H]([C@@H](C)CC)NC(=O)[C@H](CC(C)C)N(C)C(=O)C[C@@H](C(=O)N2CCOCC2)N(C)C(=O)[C@H](C2CCCC2)N(C)C(=O)[C@](C)([C@@H](C)CC)NC(=O)[C@@H]2CCCN2C(=O)[C@H](CCc2cc(F)c(C(F)(F)F)c(F)c2)NC(=O)CN(C)C(=O)[C@@H]1Cc1ccc(C(F)(F)F)cc1 [PP0774] ([NMeL]I[Aze][Sar][NPrPhe(4-CF3)][Sar][hPhe(3,5-F2-4-CF3)]P[αMeI][NMeGly(cPent)][NMeD]-Morpholide; lactam N-11) | – | – | – | – | 17 nM | – | B (a compound having 3 or more and less than 10 is denoted as B) | B (a compound having 3 or more and less than 10 is denoted as B) |

— patent publication US20240158446A1, “CYCLIC COMPOUND HAVING SELECTIVE INHIBITORY ACTION ON KRAS OVER HRAS AND NRAS” (CHUGAI SEIYAKU KABUSHIKI KAISHA, priority 2021, published 2024)
